Where a name gives a salt, the structure may show the parent alone.
Experiments:
[1] = tested on: finishing pigs; settings: Yang et al., cited from earlier work
[2] = tested on: finishing pigs; assay: Growth performance and carcass characteristics of finishing pigs fed astaxanthin with or without Paylean; assay type: in vivo; settings: for ADFI (Average Daily Feed Intake) / ADG (Average Daily Gain) / F/G (Pounds of feed to gain one pound of weight) / G/F (Reciprocal of F/G): 26 d
Description: Procedures used in the experiment were approved by the Kansas State University (KSU) Animal Care and Use Committee. The project was conducted at the KSU Swine Teaching and Research Farm. Pigs were housed in an environmentally-regulated finishing building with pens over a totally slatted floor that provided approximately 8 ft^2 per pig. Each pen was equipped with a dry, self-feeder and one nipple waterer, providing ad libitum access to feed and water. The facility was a mechanically-ventilated room with a pull-plug, manure storage pit.
A total of 144 finishing pigs from a single group (72 barrows and 72 gilts) were utilized for the experiments. Pigs were blocked by weight and gender, and allotted to one of 9 dietary treatments for an average period of 27 days pre-harvest. Each pen served as an experimental unit, with 2 pigs/pen and 8 replications to provide 16 pigs per treatment.
Experimental diets were provided in meal form and astaxanthin (0, 5, 7.5 and 10 ppm) was added to the control diet at the expense of corn starch to achieve the dietary treatments (Table 1). Paylean® was added to the diets indicated to contain 10 ppm.
Pigs were weighed on day 0, 7, 14, 21, and ˜27 to calculate average daily gain, average daily feed intake, and feed efficiency. Upon completion of the collection of growth performance data, all pigs were euthanized and processed for the collection of standard carcass measurements (dressing percentage, 10th rib backfat depth, loin muscle area, etc.).
Data were analyzed as a randomized complete block design using the PROC MIXED procedure of SAS with pen as the experimental unit. Linear and quadratic polynomial contrasts were used to determine the effect of increasing astaxanthin, with and without addition of Paylean®.
The source of natural astaxanthin used in this example was the yeast Phaffia rhodozyma which is commercially available under the trade name Aquasta® containing 10000 ppm astaxanthin, by weight.

[3] = tested on: pigs; settings: Trapp et al. 2002; cited from earlier work
[4] = 5 ppm astaxanthin in diet, without Paylean
[5] = 7.5 ppm astaxanthin in diet, without Paylean
[6] = 10 ppm astaxanthin in diet, without Paylean
[7] = 10 ppm Paylean, 0 ppm astaxanthin

Question: What does the source list for `CC1=C(/C=C/C(C)=C/C=C/C(C)=C/C=C/C=C(C)/C=C/C=C(C)/C=C/C2=C(C)C(=O)C(O)CC2(C)C)C(C)(C)CC(O)C1=O` (stereo not drawn) [astaxanthin, 3,3′-dihydroxy-β,β-carotene-4,4′ dione]?
Answer: production performance ([1]; 0, 1.5 and 3.0 ppm astaxanthin in diet of finishing pigs): no significant effect; dressing percentage, back fat thickness and loin muscle area ([1]; increasing dietary astaxanthin level (0, 1.5, 3.0 ppm)): linear effect; BF-10th rib (Back Fat) [2, 4]: 0.84 in.; BF-avg. (Back Fat) [2, 4]: 1.12 in.; Body weight, Final [2, 4]: 287.6 lb; Carcass Yield [2, 4]: 70.4%; HCW (Hot Carcass Weight) [2, 4]: 202.6 lb; LEA-10th rib (Loin Eye Area) [2, 4]: 7.55 in^2; PFFL (Percent Fat Free Lean, SFFL/HCW) [2, 4]: 52.8%; SFFL (Standard Fat Free Lean) [2, 4]: 107.1 lb; LEA (loin eye areas), average ([2]; 7.5 ppm astaxanthin alone): 7.36 square inches; increase of LEA over control pigs ([2]; 7.5 ppm astaxanthin alone vs diets without astaxanthin): 0.10 square inches; BF-10th rib (Back Fat) [2, 5]: 0.81 in.; BF-avg. (Back Fat) [2, 5]: 1.02 in.; Body weight, Final [2, 5]: 287.4 lb; Carcass Yield [2, 5]: 71.5%; HCW (Hot Carcass Weight) [2, 5]: 203.4 lb; LEA-10th rib (Loin Eye Area) [2, 5]: 7.36 in^2; PFFL (Percent Fat Free Lean, SFFL/HCW) [2, 5]: 52.9%; SFFL (Standard Fat Free Lean) [2, 5]: 107.6 lb; BF-10th rib (Back Fat) [2, 6]: 0.77 in.; BF-avg. (Back Fat) [2, 6]: 1.04 in.; Body weight, Final [2, 6]: 286.2 lb; Carcass Yield [2, 6]: 70.8%; HCW (Hot Carcass Weight) [2, 6]: 202.5 lb; LEA-10th rib (Loin Eye Area) [2, 6]: 7.53 in^2; PFFL (Percent Fat Free Lean, SFFL/HCW) [2, 6]: 53.7%; SFFL (Standard Fat Free Lean) [2, 6]: 108.6 lb; ADFI (Average Daily Feed Intake) [2, 4]: 8.06 lb; ADG (Average Daily Gain) [2, 4]: 2.34 lb; F/G (Pounds of feed to gain one pound of weight) [2, 4]: 3.44; G/F (Reciprocal of F/G) [2, 4]: 0.29; ADFI (Average Daily Feed Intake) [2, 5]: 8.03 lb; ADG (Average Daily Gain) [2, 5]: 2.45 lb; F/G (Pounds of feed to gain one pound of weight) [2, 5]: 3.28; G/F (Reciprocal of F/G) [2, 5]: 0.31; ADFI (Average Daily Feed Intake) [2, 6]: 8.01 lb; ADG (Average Daily Gain) [2, 6]: 2.41 lb; F/G (Pounds of feed to gain one pound of weight) [2, 6]: 3.35; G/F (Reciprocal of F/G) [2, 6]: 0.30; SFFL versus pigs fed a diet without astaxanthin ([2]; astaxanthin alone): no statistical difference

Question: With `CC(CCc1ccc(O)cc1)NCC(O)c1ccc(O)cc1` (stereo not drawn) [Paylean®, ractopamine hydrochloride, reference compound] as the compound, how does the “hot carcass weight, dressing percent and loin eye area” value [3] read?
Answer: increase

Question: And the “LEA (loin eye areas), average” value ([2]; 10 ppm Paylean alone)?
Answer: 8.29 square inches

Question: What about the “increase of LEA over control pigs” value ([2]; 10 ppm Paylean alone vs control diet without astaxanthin or Paylean) of the same compound?
Answer: 1.03 square inches

Question: What about the “BF-10th rib (Back Fat)” value [2, 7] of the same compound?
Answer: 0.81 in.

Question: And the “BF-avg. (Back Fat)” value [2, 7]?
Answer: 1.06 in.

Question: And the “Body weight, Final” value [2, 7]?
Answer: 297.1 lb

Question: And the “Carcass Yield” value [2, 7]?
Answer: 72.0%

Question: What about the “HCW (Hot Carcass Weight)” value [2, 7] of the same compound?
Answer: 213.9 lb

Question: What about the “LEA-10th rib (Loin Eye Area)” value [2, 7] of the same compound?
Answer: 8.29 in^2

Question: And the “PFFL (Percent Fat Free Lean, SFFL/HCW)” value [2, 7]?
Answer: 53.8%

Question: And the “SFFL (Standard Fat Free Lean)” value [2, 7]?
Answer: 115.2 lb

Question: And the “SFFL (standard fat free lean)” value ([2]; 10 ppm Paylean, control 108.4 pounds)?
Answer: 115.2 pounds

Question: What about the “ADFI (Average Daily Feed Intake)” value [2, 7] of the same compound?
Answer: 8.05 lb

Question: What about the “ADG (Average Daily Gain)” value [2, 7] of the same compound?
Answer: 2.83 lb

Question: What about the “F/G (Pounds of feed to gain one pound of weight)” value [2, 7] of the same compound?
Answer: 2.86

Question: And the “G/F (Reciprocal of F/G)” value [2, 7]?
Answer: 0.35
